Measurements: PubChem BioAssay (NCI)
Several values for one entry are separate records, joined by “and”; a condition that tells them apart may be missing. Equal values may be shown once.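 Method: 48-hour compound exposure of cells in 96-well plates, five concentrations, linear interpolation of endpoints. GI50 marks 50% less growth. TGI denotes the concentration required for complete inhibition of growth.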

Tests used:
Assay in all cases: NCI tumour cell line growth inhibition, 48 h
CCRF-CEM leukemia = system: CCRF-CEM leukemia
DU-145 prostate = system: DU-145 prostate
HCT-15 colon = system: HCT-15 colon
MALME-3M melanoma = system: MALME-3M melanoma
MDA-MB-231 breast = system: MDA-MB-231 breast
NCI-H226 lung = system: NCI-H226 lung
NCI-H23 lung = system: NCI-H23 lung
NCI-H522 lung = system: NCI-H522 lung
OVCAR-8 ovarian = system: OVCAR-8 ovarian
SF-539 CNS = system: SF-539 CNS

SMILES	GI50 (CCRF-CEM leukemia) [µM]	TGI (CCRF-CEM leukemia) [µM]	GI50 (DU-145 prostate) [µM]	TGI (DU-145 prostate) [µM]	GI50 (HCT-15 colon) [µM]	TGI (HCT-15 colon)	GI50 (MALME-3M melanoma) [µM]	TGI (MALME-3M melanoma)	GI50 (MDA-MB-231 breast) [µM]	TGI (MDA-MB-231 breast)	GI50 (NCI-H226 lung) [µM]	TGI (NCI-H226 lung)	GI50 (NCI-H23 lung) [µM]	TGI (NCI-H23 lung)	GI50 (NCI-H522 lung) [µM]	TGI (NCI-H522 lung) [µM]	GI50 (OVCAR-8 ovarian) [µM]	TGI (OVCAR-8 ovarian)	GI50 (SF-539 CNS) [µM]	TGI (SF-539 CNS)
COC(=O)c1cncc(/C=C/c2c(C)cc(O)cc2C)c1	6.77	> 25	13.6	> 25	11.1	> 25 µM	11.5	> 25 µM	7.19	> 23 µM	> 12.7	> 25 µM	10.5	> 25 µM	5.67	17.1	17.9	> 25 µM	11	> 25 µM
O=C(/C=C/c1cccc(O)c1)c1cccc(-n2cc(-c3ccccc3)[nH]c2=O)c1	3.1	> 41.1	3.15	10.3	2.94	10.3 µM	3.53	10.9 µM	3.59	12.6 µM	8.48	28.5 µM	3.64	14.4 µM	1.5	4.3	2.86	10.5 µM	1.97	3.84 µM
COC(=O)CCCCC(=O)c1c(C)[nH]c(/C=C2\N=C(c3ccc[nH]3)C=C2OC)c1C	0.159	2.32	0.482	1.81	0.359	1.4 µM	0.746	2.16 µM	0.269	1.65 µM	1.17	2.87 µM	1.46	3.6 µM	0.673	2.19	0.451	1.76 µM	1.15	2.47 µM
Cc1cc(N=Nc2ccccc2C)ccc1N	0.435	> 100	9.35	27.2	–	25.2 µM and 33.4 µM	16.2	38.6 µM and 39 µM	12.7	30.7 µM and 28.4 µM	10.3	30.8 µM and 27.8 µM	16.5	14.7 µM and 42.3 µM	6.94	22.9	20.7	34.6 µM and 96.4 µM	–	12.1 µM and 11.6 µM
COC1C(N)C(OC2C(Oc3cccc4c(O)c5c(=O)oc6ccc(C)c7c(=O)oc(c34)c5c67)OC(C)C(O)C2(C)O)OC(C)C1O (stereo not drawn)	–	3.66	–	1.33	–	7.55 µM	–	0.171 µM	–	1.74 µM	–	0.169 µM	–	0.249 µM	–	0.181	–	0.212 µM	–	0.208 µM
Cn1cc(C2=C(c3cccc(OC[C@@H](O)CO)c3)C(=O)NC2=O)c2ccccc21	> 22.5	> 25	> 25	> 25	> 25	> 25 µM	> 25	> 25 µM	> 25	> 25 µM	16.9	> 25 µM	> 25	> 25 µM	24.8	> 25	> 25	> 25 µM	> 19.4	> 25 µM
